“Also recorded” adds a separate entry of the source.
What was measured:
[1] = target: T1, NFAT1/DNA complex (Homo sapiens, UniProt Q13469); experiment: Identification of covalent attachment site on crosslinked NFAT1 (trypsin digestion, Edman sequencing); conditions: for peptide identified by Edman sequencing of the DNA-peptide conjugate: trypsin digested crosslinked NFAT1/DNA complex
T1 construct: human NFAT1 protein (residue 399-676, NFAT1-DBD)
T1 sequence (Q13469 399-676): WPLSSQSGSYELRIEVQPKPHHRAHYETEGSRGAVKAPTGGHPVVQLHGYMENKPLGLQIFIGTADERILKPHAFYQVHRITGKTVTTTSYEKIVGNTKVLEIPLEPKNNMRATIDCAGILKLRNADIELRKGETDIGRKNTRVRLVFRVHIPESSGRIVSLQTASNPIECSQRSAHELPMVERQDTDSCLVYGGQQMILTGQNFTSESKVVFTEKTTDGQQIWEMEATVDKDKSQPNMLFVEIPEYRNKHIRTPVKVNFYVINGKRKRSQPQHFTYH
Experimental: FIG. 9A-FIG. 9D depicts characterization of BFPX-mediated crosslinking reaction, to identify the covalent attachment site on the protein. (FIG. 9A) A large scale of crosslinking reaction corresponding to lane 11 of FIG. 7 was carried out. The reaction mixture was separated on FPLC using a mono-Q column (yellow trace: conductance, red trace: salt gradient (A:10 mM Hepes pH 7.4; B: 10 mM Hepes 7.4, IM NaCl), blue trace: UV254 nm absorbance). […] The flow-through contains only free NFAT (lane 4), peak I contains predominantly the complex (lane 5) and peak II contains predominantly free DNA (lane 6). (FIG. 9C) The purified NFAT/DNA complex was digested with trypsin and the DNA-peptide conjugate was purified and sequenced by Edman degradation: Top panel, a schematic picture of the DNA binding domain of human NFAT1 (residue 399-676) used in the study, the sequence of loop 478-491, RITGKTVTTTSYEK (SEQ ID NO.: 1), is shown above; Middle panel: a schematic picture of the covalently capture NFAT/DNA complex, the DNA sequence (5′-[…]-3′ (SEQ ID NO: 2) and its complementary strand 3′-[…]-5′ (SEQ ID NO: 3)) used in the study is shown with the two potential probe (yellow wedge and start) binding site (TpA) indicated). The underlined region is the NFAT binding motif. Bottom panel: Edman sequencing results ([…], T480, and G481) identify the loop of 478-491, RITGKTVTTTSYEK (SEQ ID NO: 1), as the attachment site. […]
FIG. 13A depicts characterization of the BFPX-mediated crosslinking reaction: Identification of covalent attachment sites on the crosslinked proteins. […] The reaction mixtures were separated on FPLC using a mono-Q column (yellow trace: conductance, red trace: salt gradient (buffer A:10 mM Hepes pH 7.4; buffer B: 10 mM Hepes 7.4, 1 M NaCl), blue trace: UV254 nm absorbance). […]
We analyzed the covalent attachment sites on the NFAT/DNA complexes crosslinked by SPB-AAD and SPB-PEG4-AAD using a work flow shown in FIG. 13A. […] The sequencing results were generally noisy with multiple amino acids detected in each cycle. […]

[2] = tested on: MEF2A/DNA complexes in GM12878 cells; experiment: Capture of MEF2A/DNA complexes in GM12878 nuclei, western blot; type: cell-based; conditions: probe 10 μM + UV365 10 min
Experimental: FIG. 10A depicts Western blot analysis of presence of complexing of MEF2A with DNA in GM12878 cells treated with UV365 and SPB-PEG3-AAD. For each lane, one million of GM12878 cells were used. The nuclei of the cells were extracted and resuspended in 500 μl PBS, treated with various combination of SPB-PEG3-AAD (10 μM) and/or UV365 (10 min, 30 W, LED, sample distance 3 cm, cooling at 4-degree C.). The samples were then sonicated using covaries (1 min) followed by limited MNase digestion (10 min, 37-degree C.). The lysed and partially digested samples were then mixed with SDS loading dye (2% SDS, boil for 10 min) and run on SDS gel for western blot analyses of MEF2A using Anti-MEF2 antibody (B-4) (SCBT, cat #sc-17785).
We tested the capture of MEF2A/DNA complexes in the GM12878 cell line, a Tier 1 ENCODE cell line with rich genomics data.

SMILES | peptide identified by Edman sequencing of the DNA-peptide conjugate [1] | capture of MEF2A complexes [2] | covalent attachment site on NFAT1 ([1]; human NFAT1 DBD residue 399-676)
C#CCCC1(CCNC(=O)CCCOc2c3occc3cc3ccc(=O)oc23)N=N1 [SPB-AAD, N-(2-(3-(but-3-yn-1-yl)-3H-diazirin-3-yl)ethyl)-4-((7-oxo-7H-furo[3,2-g]chromen-9-yl)oxy)butanamide] | IVGN and Ile, Thr, and Gly |  | 
C#CCCC1(CCNC(=O)CCOCCOCCOCCC(=O)NCCNC(=O)CCCOc2c3occc3cc3ccc(=O)oc23)N=N1 [SPB-PEG3-AAD] |  | could capture MEF2 complexes in the nucleus | 
C#CCCC1(CCNC(=O)CCOCCOCCOCCOCCNC(=O)CCCOc2c3occc3cc3ccc(=O)oc23)N=N1 [SPB-PEG4-AAD, N-(2-(3-(but-3-yn-1-yl)-3H-diazirin-3-yl)ethyl)-1-(4-((7-oxo-7H-furo[3,2-g]chromen-9-yl)oxy)butanamido)-3,6,9,12-tetraoxapentadecan-15-amide] | APTGGH |  | residues 434 and 452; also recorded: loop of 434-452

Reference: US20250388597A1, “BIFUNCTIONAL PHOTOCROSSLINKING PROBES FOR COVALENT CAPTURE OF PROTEIN-NUCLEIC ACID COMPLEXES IN CELLS” (UNIVERSITY OF SOUTHERN CALIFORNIA, priority 2022, published 2025)
